Results from patent publication US20150105252A1, “SUBSTITUTED PYRAZOLES AS HERBICIDES” (E I DU PONT DE NEMOURS AND COMPANY, priority 2013, published 2015).

Tests used:
morningglory = assay: Test A preemergence; format: in vivo, Ipomoea spp.
Outline: (§1)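 Ratings express plant response from 0 (no effect) to 100 (complete control), judged visually against untreated controls after approximately 10 days in the greenhouse. Preemergence applications were made as directed soil sprays onto seeded loam–sand mix, and postemergence applications onto 2–10 cm plants at one- to two-leaf stage.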

corn = assay: Test A preemergence; format: in vivo, Zea mays
Outline: as §1

crabgrass, large = assay: Test A postemergence; format: in vivo, Digitaria sanguinalis
Outline: as §1

pigweed [1] = assay: Test A postemergence; format: in vivo, Amaranthus retroflexus
Outline: as §1

sedge, umbrella = assay: Test B flood; format: in vivo, Cyperus difformis; conditions: 250 g ai/ha, visual rating on 0 to 100 scale (0 no effect, 100 complete control), 13 to 15 days
Outline: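 Paddy-water application: seedlings at 2-leaf stage, flood depth 3 cm maintained for the test duration. Evaluation after 13–15 days in the greenhouse by eye relative to controls; 0–100 scale.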

ragweed = assay: Test C preemergence; format: in vivo, Ambrosia elation; conditions: for Plant response rating (scale of 0 to 100), Ragweed: 250 g ai/ha
Outline: (§2)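 Seeds sown in loam–sand blend and treated preemergence with test chemicals in non-phytotoxic solvent with surfactant; postemergence plants in peat-based medium, treated at 2–18 cm (1- to 4-leaf stage). Greenhouse 13 to 15 days, then visual rating versus controls, 0 (no effect) to 100 (complete control).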

ryegrass, Italian [2] = assay: Test C postemergence; format: in vivo, Lolium multiflorum; conditions: for Plant response rating (scale of 0 to 100 where 0 is no effect and 100 is complete control), Ryegrass, Italian: 31 g ai/ha, visually evaluated after 13 to 15 days; for Ryegrass, Italian plant response rating / Plant response rating, Ryegrass, Italian: postemergence; for Ryegrass, Italian plant response rating: 62 g ai/ha, scale 0 to 100
Outline: as §2

lambsquarters = assay: Test C postemergence; format: in vivo, Chenopodium album; conditions: for Plant response rating (scale of 0 to 100 where 0 is no effect and 100 is complete control), Lambsquarters: 31 g ai/ha, visually evaluated after 13 to 15 days; for Lambsquarters plant response rating / Plant response rating, Lambsquarters: postemergence; for Lambsquarters plant response rating: 62 g ai/ha, scale 0 to 100
Outline: as §2

pigweed [3] = assay: Test C postemergence; format: in vivo, Amaranthus retroflexus; conditions: for Plant response rating (scale of 0 to 100 where 0 is no effect and 100 is complete control), Pigweed: 31 g ai/ha, visually evaluated after 13 to 15 days; for Pigweed plant response rating / Plant response rating, Pigweed: postemergence; for Pigweed plant response rating: 62 g ai/ha, scale 0 to 100
Outline: as §2

soybean = assay: Test C postemergence; format: in vivo, Glycine max; conditions: for Plant response rating (scale of 0 to 100 where 0 is no effect and 100 is complete control), Soybean: 31 g ai/ha, visually evaluated after 13 to 15 days; for Soybean plant response rating / Plant response rating, Soybean: postemergence; for Soybean plant response rating: 62 g ai/ha, scale 0 to 100
Outline: as §2

oat, wild = assay: Test C postemergence; format: in vivo, Avena fatua; conditions: for Plant response rating (scale of 0 to 100 where 0 is no effect and 100 is complete control), Oat, Wild: 31 g ai/ha, visually evaluated after 13 to 15 days; for Oat, Wild plant response rating / Plant response rating, Oat, Wild: postemergence; for Oat, Wild plant response rating: 62 g ai/ha, scale 0 to 100
Outline: as §2

ryegrass, Italian [4] = assay: Test C preemergence; format: in vivo, Lolium multiflorum; conditions: for Ryegrass, Italian plant response rating: preemergence
Outline: as §2

wheat = assay: Test C preemergence; format: in vivo, Triticum aestivum; conditions: for Wheat plant response rating: preemergence
Outline: as §2

[5] = Preemergence, 500 g ai/ha, 0 to 100 scale, 0 no effect, 100 complete control
[6] = preemergence, 125 g ai/ha, visual injury, 0 to 100 scale, approx. 10 days
[7] = Postemergence, 500 g ai/ha, visual rating after approx. 10 days, 0 to 100 scale (0 no effect, 100 complete control)
[8] = postemergence, 125 g ai/ha, about 10 days, visual rating on 0 to 100 scale (0 no effect, 100 complete control)
[9] = preemergence, 31 g ai/ha, scale 0 to 100 (0 no effect, 100 complete control), 13 to 15 days
[10] = preemergence, 62 g ai/ha, 13 to 15 days, scale 0 to 100, 0 = no effect, 100 = complete control
[11] = preemergence, 125 g ai/ha, scale 0 to 100, 0 is no effect, 100 is complete control
[12] = 250 g ai/ha, scale 0 to 100 (0 no effect, 100 complete control)
[13] = 125 g ai/ha, scale 0 to 100, 0 no effect, 100 complete control
[14] = preemergence, 500 g ai/ha, visual injury after approx. 10 days, 0 to 100 scale (0 no effect, 100 complete control)
[15] = preemergence, 31 g ai/ha, visual rating, scale 0 to 100 (0 no effect, 100 complete control), 13 to 15 days
[16] = preemergence, 62 g ai/ha, scale 0 to 100 (0 no effect, 100 complete control), 13 to 15 days
[17] = 31 g ai/ha, visual rating, scale 0 to 100 (0 no effect, 100 complete control), 13 to 15 days
[18] = 62 g ai/ha, scale 0 to 100 (0 no effect, 100 complete control), 13 to 15 days
[19] = 125 g ai/ha, scale 0 to 100, 0 is no effect, 100 is complete control

SMILES	Morningglory plant response rating (morningglory; [6])	Corn plant response rating (corn; [6])	Pigweed plant response rating (pigweed [1]; [8])	Plant response rating, Sedge, Umbrella (sedge, umbrella)	Ragweed plant response rating (ragweed; [11])	Plant response rating (scale of 0 to 100 where 0 is no effect and 100 is complete control), Ryegrass, Italian (ryegrass, Italian [2]; Postemergence)	Ryegrass, Italian plant response rating (ryegrass, Italian [2])	Plant response rating, Ryegrass, Italian (ryegrass, Italian [2]; [13])	Plant response rating (scale of 0 to 100 where 0 is no effect and 100 is complete control), Lambsquarters (lambsquarters; Postemergence)	Lambsquarters plant response rating (lambsquarters)	Plant response rating, Lambsquarters (lambsquarters; [13])	Plant response rating (scale of 0 to 100 where 0 is no effect and 100 is complete control), Pigweed (pigweed [3]; Postemergence)	Pigweed plant response rating (pigweed [3])	Plant response rating, Pigweed (pigweed [3]; [13])	Plant response rating (scale of 0 to 100 where 0 is no effect and 100 is complete control), Soybean (soybean; Postemergence)	Soybean plant response rating (soybean)	Plant response rating, Soybean (soybean; [13])	Plant response rating (scale of 0 to 100 where 0 is no effect and 100 is complete control), Oat, Wild (oat, wild; Postemergence)	Oat, Wild plant response rating (oat, wild)	Plant response rating, Oat, Wild (oat, wild; [13])	other results
CCc1cc(C(=O)NC2CC2)nn1Cc1ccnc(C(F)(F)F)c1 [Compound 76]	70	50	100	80	100	5	5	5	75	75	85	60	60	90	65	75	95	5	5	5	Morningglory plant response rating (morningglory; [5]): 100; Corn plant response rating (corn; [5]): 80; Crabgrass, Large plant response rating (crabgrass, large; [7]): 100; Crabgrass, Large plant response rating (crabgrass, large; [8]): 80; Pigweed plant response rating (pigweed [1]; [7]): 100; Plant response rating (scale of 0 to 100), Ragweed (ragweed; Preemergence): 100; Ragweed plant response rating (ragweed; [9]): 90; Plant response rating, Ragweed (ragweed; [10]): 100; Plant response rating, Ryegrass, Italian (ryegrass, Italian [2]; [12]): 10; Plant response rating, Lambsquarters (lambsquarters; [12]): 85; Plant response rating, Pigweed (pigweed [3]; [12]): 98; Plant response rating, Soybean (soybean; [12]): 98; Plant response rating, Oat, Wild (oat, wild; [12]): 25
CCONC(=O)c1cc(CC)n(Cc2ccnc(C(F)(F)F)c2)n1 [Compound 77]	20	10	100	80	85	5	5	5	35	35	70	50	55	60	10	25	35	5	5	5	Morningglory plant response rating (morningglory; [5]): 50; Corn plant response rating (corn; [5]): 30; Crabgrass, Large plant response rating (crabgrass, large; [7]): 100; Crabgrass, Large plant response rating (crabgrass, large; [8]): 90; Pigweed plant response rating (pigweed [1]; [7]): 100; Plant response rating, Ragweed (ragweed; Preemergence, 16 g ai/ha, scale 0 to 100): 10; Ragweed plant response rating (ragweed; [9]): 35; Plant response rating, Ragweed (ragweed; [10]): 70; Plant response rating (scale of 0 to 100), Ryegrass, Italian (ryegrass, Italian [2]; Postemergence, 16 g ai/ha): 0; Plant response rating (scale of 0 to 100), Lambsquarters (lambsquarters; Postemergence, 16 g ai/ha): 15; Plant response rating (scale of 0 to 100), Pigweed (pigweed [3]; Postemergence, 16 g ai/ha): 25; Plant response rating (scale of 0 to 100), Soybean (soybean; Postemergence, 16 g ai/ha): 10; Plant response rating (scale of 0 to 100), Oat, Wild (oat, wild; Postemergence, 16 g ai/ha): 5
CCc1cc(-c2ccc(C(F)(F)F)cc2)nn1Cc1ccnc(C(F)(F)F)c1 [Compound 110]	90	80	100	80	60	20	20	35	40	75	85	85	85	90	35	55	70	5	25	30	Morningglory plant response rating (morningglory; [14]): 100; Corn plant response rating (corn; [14]): 90; Crabgrass, Large plant response rating (crabgrass, large; [7]): 100; Crabgrass, Large plant response rating (crabgrass, large; [8]): 70; Pigweed plant response rating (pigweed [1]; [7]): 100; Plant response rating (scale of 0 to 100), Ragweed (ragweed; Preemergence): 75; Ragweed plant response rating (ragweed; [15]): 35; Ragweed plant response rating (ragweed; [16]): 35; Plant response rating, Ryegrass, Italian (ryegrass, Italian [2]; [12]): 40; Plant response rating, Lambsquarters (lambsquarters; [12]): 98; Plant response rating, Pigweed (pigweed [3]; [12]): 98; Plant response rating, Soybean (soybean; [12]): 85; Plant response rating, Oat, Wild (oat, wild; [12]): 35
CCc1cc(C(=O)NOC(C)C)nn1Cc1ccnc(OC(F)F)c1 [Compound 126]	–	–	90	95	100	5	5	10	35	70	80	25	50	40	40	45	55	35	15	20	Pigweed plant response rating (pigweed [1]; Postemergence, 500 g ai/ha, 0 to 100 scale (0 no effect, 100 complete control)): 90; Plant response rating (scale of 0 to 100), Ryegrass, Italian (ryegrass, Italian [4]; Preemergence, 250 g ai/ha): 90; Ryegrass, Italian plant response rating (ryegrass, Italian [4]; [17]): 15; Ryegrass, Italian plant response rating (ryegrass, Italian [4]; [18]): 60; Ryegrass, Italian plant response rating (ryegrass, Italian [4]; [19]): 90; Plant response rating (scale of 0 to 100), Wheat (wheat; Preemergence, 250 g ai/ha): 90; Wheat plant response rating (wheat; [17]): 45; Wheat plant response rating (wheat; [18]): 80; Wheat plant response rating (wheat; [19]): 90; Plant response rating (scale of 0 to 100), Ragweed (ragweed; Preemergence): 90; Ragweed plant response rating (ragweed; [15]): 70; Ragweed plant response rating (ragweed; [16]): 100; Plant response rating, Ryegrass, Italian (ryegrass, Italian [2]; [12]): 15; Plant response rating, Lambsquarters (lambsquarters; [12]): 90; Plant response rating, Pigweed (pigweed [3]; [12]): 65; Plant response rating, Soybean (soybean; [12]): 65; Plant response rating, Oat, Wild (oat, wild; [12]): 50
